pIC50: −log10 of the molar value.
Test system: 648629-189-R-J1-PDC spheroids with HUVEC/MSC, viability
Assay: Anticancer human tumor 648629-189-R-J1-PDC patient-derived bladder carcinoma cell line growth inhibition [PI3K]
Details: for pIC50: curve of first compound; for viability, T/C: stronger effect = lower value; active means viability on the fitted dose curve at most 10% of control; inactive means the rest
Procedure, shortened: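 We assembled tumor spheroids that included a stromal compartment of HUVEC and MSCs, then exposed them to targeted agents alone and together with PI3K pathway inhibitors. Concentration series descended by half-log from clinically achievable Cmax levels. Viability served as the endpoint.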

[1] = second compound 0.0316 µM, first compound 0.000316 µM
[2] = second compound 0.0316 µM, first compound 0.001 µM
[3] = second compound 0.0316 µM, first compound 0.00316 µM
[4] = second compound 0.0316 µM, first compound 0.01 µM
[5] = second compound 0.0316 µM, first compound 0.0316 µM
[6] = second compound 0.0316 µM, first compound 0.1 µM
[7] = second compound 0.1 µM, first compound 0.000316 µM
[8] = second compound 0.1 µM, first compound 0.001 µM
[9] = second compound 0.1 µM, first compound 0.00316 µM
[10] = second compound 0.1 µM, first compound 0.01 µM
[11] = second compound 0.1 µM, first compound 0.0316 µM
[12] = second compound 0.1 µM, first compound 0.1 µM
[13] = second compound 0.316 µM, first compound 0.000316 µM
[14] = second compound 0.316 µM, first compound 0.001 µM
[15] = second compound 0.316 µM, first compound 0.00316 µM
[16] = second compound 0.316 µM, first compound 0.01 µM
[17] = second compound 0.316 µM, first compound 0.0316 µM
[18] = second compound 0.316 µM, first compound 0.1 µM
[19] = second compound 1 µM, first compound 0.000316 µM
[20] = second compound 1 µM, first compound 0.001 µM
[21] = second compound 1 µM, first compound 0.00316 µM
[22] = second compound 1 µM, first compound 0.01 µM
[23] = second compound 1 µM, first compound 0.0316 µM
[24] = second compound 1 µM, first compound 0.1 µM
[25] = second compound 0.0316 µM, first compound 0.316 µM
[26] = second compound 0.0316 µM, first compound 1 µM
[27] = second compound 0.0316 µM, first compound 3.16 µM
[28] = second compound 0.0316 µM, first compound 10 µM
[29] = second compound 0.1 µM, first compound 0.316 µM
[30] = second compound 0.1 µM, first compound 1 µM
[31] = second compound 0.1 µM, first compound 3.16 µM
[32] = second compound 0.1 µM, first compound 10 µM
[33] = second compound 0.316 µM, first compound 0.316 µM
[34] = second compound 0.316 µM, first compound 1 µM
[35] = second compound 0.316 µM, first compound 3.16 µM
[36] = second compound 0.316 µM, first compound 10 µM
[37] = second compound 1 µM, first compound 0.316 µM
[38] = second compound 1 µM, first compound 1 µM
[39] = second compound 1 µM, first compound 3.16 µM
[40] = second compound 1 µM, first compound 10 µM
[41] = second compound 3.16 µM, first compound 0.0316 µM
[42] = second compound 3.16 µM, first compound 0.1 µM
[43] = second compound 3.16 µM, first compound 0.316 µM
[44] = second compound 3.16 µM, first compound 1 µM
[45] = second compound 3.16 µM, first compound 3.16 µM
[46] = second compound 3.16 µM, first compound 10 µM
[47] = second compound 10 µM, first compound 0.0316 µM
[48] = second compound 10 µM, first compound 0.1 µM
[49] = second compound 10 µM, first compound 0.316 µM
[50] = second compound 10 µM, first compound 1 µM
[51] = second compound 10 µM, first compound 3.16 µM
[52] = second compound 10 µM, first compound 10 µM
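Further: spheroids exposed to agents for seven days before reading.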
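Wherever viability, T/C is given: percent of vehicle control luminescence where 100% = DMSO treated spheroids.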

CC(C)n1nc(-c2ccc3oc(N)nc3c2)c2c(N)ncnc21 + COc1c(OCCCN2CCOCC2)ccc2c3n(c(=NC(=O)c4cnc(N)nc4)nc12)CCN3
7.33: pIC50 (second compound 0.01 µM)
7.45: pIC50 (second compound 0.0316 µM)
active: viability, T/C [18] 5.55% | viability, T/C [19] 3.09% | viability, T/C [20] 3% | viability, T/C [21] 2.48% | viability, T/C [22] 3.58% | viability, T/C [23] 2.39% | viability, T/C [24] 0.95%
7.24: pIC50 (second compound 0.00316 µM)
7.84: pIC50 (second compound 0.1 µM)
> 9.50: pIC50 (second compound 0.316 µM) | pIC50 (second compound 1 µM)
inactive: viability, T/C (second compound 0.00316 µM, first compound 0.000316 µM) 90.5% | viability, T/C (second compound 0.00316 µM, first compound 0.001 µM) 79.5% | viability, T/C (second compound 0.00316 µM, first compound 0.00316 µM) 95.2% | viability, T/C (second compound 0.00316 µM, first compound 0.01 µM) 77.8% | viability, T/C (second compound 0.00316 µM, first compound 0.0316 µM) 72.7% | viability, T/C (second compound 0.00316 µM, first compound 0.1 µM) 30.3% | viability, T/C (second compound 0.01 µM, first compound 0.000316 µM) 86.2% | viability, T/C (second compound 0.01 µM, first compound 0.001 µM) 89.9% | viability, T/C (second compound 0.01 µM, first compound 0.00316 µM) 90.4% | viability, T/C (second compound 0.01 µM, first compound 0.01 µM) 79.5% | viability, T/C (second compound 0.01 µM, first compound 0.0316 µM) 62.4% | viability, T/C (second compound 0.01 µM, first compound 0.1 µM) 25.9% | viability, T/C [1] 79.1% | viability, T/C [2] 86.4% | viability, T/C [3] 86% | viability, T/C [4] 68.3% | viability, T/C [5] 54.5% | viability, T/C [6] 21.7% | viability, T/C [7] 63.1% | viability, T/C [8] 56.8% | viability, T/C [9] 61.1% | viability, T/C [10] 58.3% | viability, T/C [11] 32.8% | viability, T/C [12] 13.3% | viability, T/C [13] 18.5% | viability, T/C [14] 21.5% | viability, T/C [15] 18.2% | viability, T/C [16] 15.8% | viability, T/C [17] 12.2%

C[C@@H](NC(=O)c1ncnc(N)c1Cl)c1ncc(C(=O)Nc2cc(C(F)(F)F)c(Cl)cn2)s1 + CC(Nc1ncnc2nc[nH]c12)c1cc2cccc(Cl)c2c(=O)n1-c1ccccc1
inactive: viability, T/C [5] 98.8% | viability, T/C [6] 104% | viability, T/C [25] 111% | viability, T/C [26] 108% | viability, T/C [27] 118% | viability, T/C [28] 130% | viability, T/C [11] 113% | viability, T/C [12] 97.2% | viability, T/C [29] 112% | viability, T/C [30] 109% | viability, T/C [31] 112% | viability, T/C [32] 113% | viability, T/C [17] 105% | viability, T/C [18] 110% | viability, T/C [33] 102% | viability, T/C [34] 118% | viability, T/C [35] 112% | viability, T/C [36] 115% | viability, T/C [23] 115% | viability, T/C [24] 89% | viability, T/C [37] 113% | viability, T/C [38] 114% | viability, T/C [39] 113% | viability, T/C [40] 116% | viability, T/C [41] 112% | viability, T/C [42] 98.5% | viability, T/C [43] 98.3% | viability, T/C [44] 104% | viability, T/C [45] 107% | viability, T/C [46] 104% | viability, T/C [47] 103% | viability, T/C [48] 81% | viability, T/C [49] 78.8% | viability, T/C [50] 86.5% | viability, T/C [51] 91.8% | viability, T/C [52] 85.1%
< 5.00: pIC50 (second compound 0.0316 µM) | pIC50 (second compound 0.1 µM) | pIC50 (second compound 0.316 µM) | pIC50 (second compound 1 µM) | pIC50 (second compound 3.16 µM) | pIC50 (second compound 10 µM)

CC(C)n1nc(-c2ccc3oc(N)nc3c2)c2c(N)ncnc21 + Cc1nc(NC(=O)N2CCCC2C(N)=O)sc1-c1ccnc(C(C)(C)C(F)(F)F)c1
7.96: pIC50 (second compound 3.16 µM)
7.25: pIC50 (second compound 0.1 µM)
inactive: viability, T/C [1] 111% | viability, T/C [2] 95.1% | viability, T/C [3] 109% | viability, T/C [4] 97.5% | viability, T/C [5] 70.2% | viability, T/C [6] 32.6% | viability, T/C [7] 102% | viability, T/C [8] 94.9% | viability, T/C [9] 91.7% | viability, T/C [10] 84.6% | viability, T/C [11] 68% | viability, T/C [12] 32.8% | viability, T/C [13] 87.3% | viability, T/C [14] 83.5% | viability, T/C [15] 83.5% | viability, T/C [16] 82% | viability, T/C [17] 66.1% | viability, T/C [18] 29.1% | viability, T/C [19] 80.9% | viability, T/C [20] 85.2% | viability, T/C [21] 74.2% | viability, T/C [22] 64.5% | viability, T/C [23] 53.9% | viability, T/C [24] 23.2% | viability, T/C (second compound 3.16 µM, first compound 0.000316 µM) 63.9% | viability, T/C (second compound 3.16 µM, first compound 0.001 µM) 54.8% | viability, T/C (second compound 3.16 µM, first compound 0.00316 µM) 60.5% | viability, T/C (second compound 3.16 µM, first compound 0.01 µM) 48.6% | viability, T/C [41] 40.7% | viability, T/C [42] 19.1% | viability, T/C (second compound 10 µM, first compound 0.000316 µM) 41.4% | viability, T/C (second compound 10 µM, first compound 0.001 µM) 37.5% | viability, T/C (second compound 10 µM, first compound 0.00316 µM) 37.5% | viability, T/C (second compound 10 µM, first compound 0.01 µM) 33.6% | viability, T/C [47] 27.7% | viability, T/C [48] 9.34%
> 9.50: pIC50 (second compound 10 µM)
7.48: pIC50 (second compound 1 µM)
7.23: pIC50 (second compound 0.0316 µM)
7.28: pIC50 (second compound 0.316 µM)

CCCS(=O)(=O)Nc1ccc(F)c(C(=O)c2c[nH]c3ncc(-c4ccc(Cl)cc4)cc23)c1F + CC(Nc1ncnc2nc[nH]c12)c1cc2cccc(Cl)c2c(=O)n1-c1ccccc1
5.28: pIC50 (second compound 0.0316 µM) | pIC50 (second compound 0.316 µM) | pIC50 (second compound 1 µM)
inactive: viability, T/C [5] 99.8% | viability, T/C [6] 95.1% | viability, T/C [25] 120% | viability, T/C [26] 98.3% | viability, T/C [27] 88.2% | viability, T/C [11] 103% | viability, T/C [12] 96.7% | viability, T/C [29] 91.8% | viability, T/C [30] 98.9% | viability, T/C [31] 100% | viability, T/C [17] 109% | viability, T/C [18] 108% | viability, T/C [33] 99.2% | viability, T/C [34] 109% | viability, T/C [35] 89.4% | viability, T/C [23] 101% | viability, T/C [24] 88.7% | viability, T/C [37] 96.2% | viability, T/C [38] 99.2% | viability, T/C [39] 89.1% | viability, T/C [41] 91.1% | viability, T/C [42] 103% | viability, T/C [43] 92.2% | viability, T/C [44] 89.5% | viability, T/C [45] 67.6% | viability, T/C [47] 86.9% | viability, T/C [48] 77.6% | viability, T/C [49] 81.9% | viability, T/C [50] 80.2% | viability, T/C [51] 60.6%
5.41: pIC50 (second compound 10 µM)
active: viability, T/C [28] 0.98% | viability, T/C [32] 0.84% | viability, T/C [36] 0.43% | viability, T/C [40] 0.46% | viability, T/C [46] 0.83% | viability, T/C [52] 1.35%
5.37: pIC50 (second compound 3.16 µM)
5.25: pIC50 (second compound 0.1 µM)
